Reference: ChEMBL document CHEMBL1154198, “Chemical genetics of Plasmodium falciparum” (Nature, 2010)

Assays:
[1] = tested on: Plasmodium falciparum; test: ST_JUDE: Plasmodium falciparum 3D7 EC50 (uM) as measured by SYBR green dye; format: functional, organism-based
[2] = tested on: Plasmodium falciparum; test: ST_JUDE: Plasmodium falciparum K1 EC50 (uM) as measured by SYBR green dye; format: functional, organism-based

SMILES	EC50 [1] [µM]	EC50 [2] [µM]
O=C(NCCN1CCC(Cc2ccccc2)CC1)c1cc(-c2cccnc2)nc2ccccc12	1.13	0.942
CCCCOc1cccc(C(=O)Nc2ccc(CN3CCCCC3)cc2)c1	> 15	> 15
Nc1ccc(-c2nc3cc(Oc4ccc5[nH]c(-c6ccc(N)cc6)nc5c4)ccc3[nH]2)cc1	1.47	1.69
O=C(Nc1ccc(F)cc1)C1c2ccccc2C(=O)N(C2CCCC2)C1c1cccs1 (configuration not stated)	0.808	0.975
COCCn1c(SCC(=O)Nc2cccc(F)c2)nc2c(c1=O)SC(C)C2 (configuration not stated)	> 15	> 15
O=C(CSc1nccn1-c1ccc(F)cc1)Nc1cc(C(F)(F)F)ccc1Cl	2.96	4.11
O=C(CSc1ccc2nnc(-c3cccc(F)c3)n2n1)Nc1cccc(F)c1	> 15	1.08
CCc1cccc(NC(=O)c2cc3c(-c4ccc(OC)c(OC)c4)nn(C)c3s2)c1	> 15	> 15
COc1cccc2sc(N(Cc3cccnc3)C(=O)C3CCCCC3)nc12	> 15	> 15
O=C1CC(c2ccc(C(F)(F)F)cc2)C2=C(CC(c3ccccc3Cl)CC2=O)N1 (configuration not stated)	1.66	0.828
Oc1c(C(Nc2ccccn2)c2ccc(Br)cc2)ccc2cccnc12 (configuration not stated)	1.22	2.84
CCCCOc1ccc(C(=O)Nc2ccccc2Oc2ccccc2)cc1	> 15	1.75
CSc1nc(N)c2c(n1)N=C1CC(C)(C)CC(O)=C1C2c1cccs1 (configuration not stated)	> 15	> 15
O=C(Nc1ccccc1O)c1ccc(-c2ccc(Cl)cc2Cl)o1	2.46	> 15
CCCCN1COc2c(c3c(C(C)=O)c(C)oc3c3ccccc23)C1	> 15	4.31
O=[N+]([O-])c1ccc(O)c(-c2cc(C(F)(F)F)nc(-c3ccccc3)n2)c1	1.75	3.25
COc1ccc(CC(=O)N2CC(=O)Nc3ccc(Cl)cc3C2c2ccc(F)cc2)cc1 (configuration not stated)	> 15	> 15
CCOC(=O)c1ccc(NC(=O)C2CCC(C(C)(C)C)CC2)cc1 (configuration not stated)	> 15	> 15
CCOc1ccc2c(c1)CN(Cc1ccc(Cl)cc1)CO2	1.49	0.284
CSCCC(=O)N(C)C(Cc1ccc(F)cc1)C1CCN(C(=O)c2cc3ccccc3n2C)CC1 (configuration not stated)	> 15	> 15
COc1ccc(Br)cc1C(Nc1ccccn1)c1cc(Cl)c2cccnc2c1O (configuration not stated)	> 15	2.95
CC(=O)c1ccc(Oc2c(F)c(F)nc(F)c2F)cc1	> 15	> 15

SMILES	EC50 [1] [µM]	EC50 [2] [µM]
CCN1CCN(c2cc(C)c3cc(NC(=S)N4CCC(N5CCCCC5)CC4)ccc3n2)CC1	5.91	7.89
Cc1ccc(Nc2cc(C)nc(Nc3ccc(NS(=O)(=O)c4ccc(Cl)cc4)cc3)n2)cc1	0.432	> 15
CCC(C(=O)NCc1ccccc1Cl)n1c2ccccc2c2nc(=O)cc(C)n21 (configuration not stated)	> 15	> 15
CCc1ccc(C2C(C#N)=C(N)N(c3cccc(Cl)c3)C3=C2C(=O)CCC3)s1 (configuration not stated)	> 15	> 15
Cc1cc(/C=N/n2cnnc2)c(C)n1-c1ccc(Br)cc1	> 15	> 15
CCN1C=CC=C/C1=C/c1ccc2cc(C)ccc2[n+]1CC	0.543	0.453
CCCCc1ccc(Nc2cc(C)nc(-n3nc(C)cc3C)n2)cc1	> 15	4.64
CC(=O)NC1=C(Cl)C(=O)c2ccccc2C1=O	4.04	2.21
O=[N+]([O-])c1ccc(C2Nc3c(O)ccc(Br)c3C3C=CCC32)cc1 (configuration not stated)	7	2.71
CCc1cccc2c(C#N)cn(Cc3ccc(Br)cc3)c12	3.67	4
CC(C)C[C@@H](CO)Nc1c2ccccc2nc2ccccc12	2.85	4.3
COc1ccccc1C1CC(c2ccccc2)=NN1C(=O)c1ccccc1 (configuration not stated)	0.855	4.32
Cc1ccnc(N2C(=O)c3ccccc3C2Nc2ccccc2C)c1 (configuration not stated)	> 15	> 15
CCCCN(CC)CCNC(=O)c1cc2cc3ccc(C)cc3nc2o1	> 15	4.09
CCCCNc1nc(Nc2cccc(C)c2)c2cnn(-c3ccccc3)c2n1	> 15	7.9
O=[N+]([O-])c1cccc(-c2cn(-c3ccccc3)c3[n+]2CCCS3)c1	2.28	3.91
O=C(NCCc1cccc(C(F)(F)F)c1)Nc1cc(C(F)(F)F)ccc1Cl	3.09	2.37
COc1ccc(CCNC(=S)Nc2ccccc2Cl)cc1	4.88	4.8
CC(=O)c1ccc(NC(=O)C2c3ccccc3C(=O)N(CC(C)C)C2c2cccs2)cc1 (configuration not stated)	0.571	0.682
COC(=O)C1=C(C(=O)OC)C2(OC1c1cccc(F)c1)C(=O)c1ccccc1C2=O (configuration not stated)	3.97	> 15
COc1nc(N=C(N)N)nc2c(C)cccc12	2.42	3.41
CC(=O)Nc1ccc(Nc2c3ccccc3nc3ccccc23)cc1	2.69	1.37

SMILES	EC50 [1] [µM]	EC50 [2] [µM]
Cc1nn(-c2ccccc2)c2ncc(C(=O)Nc3cccc(Cl)c3)c(O)c12	> 15	4.31
O=C(Nc1ccc(Cl)cc1)C1c2ccccc2C(=O)N(C2CCCC2)C1c1cccs1 (configuration not stated)	0.556	1.07
COc1cccc(C(=O)NC(c2ccc(C)cc2)c2cc(Cl)c3cccnc3c2O)c1 (configuration not stated)	> 15	> 15
CCC1CCCCN1CCCNC(=O)c1ccc2c(c1)sc1nc(-c3ccc(F)cc3)cn12 (configuration not stated)	0.463	1.3
CCOC(=O)c1ccc(NC(=O)Cc2csc(NC(=O)Nc3ccccc3)n2)cc1	> 15	> 15
CCn1c2ccccc2c2cc(CN3CCN(Cc4cc(OC)ccc4O)CC3)ccc21	2.84	1.22
COc1cccc(C(=O)Nc2ccc(-c3nnc(-c4ccco4)o3)cc2)c1	> 15	> 15
Cc1cc(C)c2c(c1)c(-c1ccccc1)c(-c1ccccc1)n2CC(O)CN1CCN(CCO)CC1 (configuration not stated)	2.16	1.59
COc1cccc(C(=O)NC(c2ccc([N+](=O)[O-])cc2)c2c(O)ccc3ccccc23)c1 (configuration not stated)	> 15	5.25
O=C(NCCc1ccncc1)Nc1ccc([N+](=O)[O-])cc1	> 15	> 15
C=CCc1cccc(/C=N/NC(=O)c2cccs2)c1O	> 15	6.81
O=C(c1ccco1)N(Cc1cccnc1)c1nc2ccc(F)cc2s1	> 15	> 15
CN1CCN(c2nc(Nc3ccc(F)cc3)c3cnn(-c4ccccc4)c3n2)CC1	1.49	4.27
CC(C)/N=C1\C(=O)c2ccccc2C(O)=C1Cl	1.23	0.53
CC(C)CN(CC(C)C)S(=O)(=O)c1ccc(C(=O)Nc2nc(-c3ccccn3)cs2)cc1	> 15	3.28
CCCN(CCC)CCCNC(=O)c1cc2c(-c3ccc(OC)c(OC)c3)nn(C)c2s1	4.04	> 15
O=C(Nc1ccc(Cl)cc1C(O)c1ccccc1)c1cnn2c1NC(c1ccccc1)CC2C(F)(F)F (configuration not stated)	0.765	0.5
CCc1ccc2nc(N(Cc3cccnc3)C(C)=O)sc2c1	> 15	> 15
COc1ccc(C2C(C(=O)OC(C)C)=C(C)N=c3s/c(=C\c4cc(Cl)ccc4O)c(=O)n32)cc1 (configuration not stated)	7	0.331
COc1ccc(CN2CCCN(C)CC2)cc1OCCC1CCCCN1C(=O)/C=C/c1cccs1 (configuration not stated)	3.98	1.48
CC(=O)c1c(C)n(CCOc2ccc(F)cc2)c2ccccc12	> 15	4.88
COc1ccccc1CCN1COc2c(cc3c(C)c(C)c(=O)oc3c2C)C1	1.5	0.49

SMILES	EC50 [1] [µM]	EC50 [2] [µM]
CCOC(=O)c1cnc2c(C)c(C)ccc2c1Nc1cc([N+](=O)[O-])ccc1O	> 15	> 15
O=C1/C(=C/c2ccc(F)cc2)Oc2c1ccc(O)c2CN1CCCCC1	2.03	0.469
COc1cccc2c(C)nc(N=C(N)N)nc12	> 15	> 15
COc1ccc(C2(O)C[N+](c3ccc(C)cc3)=C3SCCCN32)c(F)c1 (configuration not stated)	> 15	> 15
Cc1cccc(NC(c2ccc(Br)cc2)c2ccc3cccnc3c2O)n1 (configuration not stated)	1.94	3.54
C/C(Cl)=C\C[N+]1(C/C=C(\C)Cl)CCCCC1	> 15	> 15
CCCC(=O)N1CCN(c2ccc(NC(=O)c3cccc(OCC)c3)cc2Cl)CC1	> 15	> 15
CCCCn1c(C)c(C(=O)OCC)c2cc(OC(C)=O)c(Br)cc21	2.76	> 15
COc1ccc(O)c(CN2CCN(Cc3ccc(C)cc3)CC2)c1	1.62	0.988
COC(=O)c1cc(NS(=O)(=O)c2ccccc2[N+](=O)[O-])cc(C(=O)OC)c1	> 15	> 15
CCCCCn1c(=N)n(CC(O)COc2cccc(C)c2)c2ccccc21 (configuration not stated)	2.65	1.36
CC/C(=C\c1sc2ccc(OC)cc2[n+]1CC)SC	1.33	> 15
Cc1cc(C)c[n+](C(C)C(=O)c2ccc(-c3ccccc3)cc2)c1 (configuration not stated)	2.86	2.53
O=C(CN(Cc1ccc(F)cc1)S(=O)(=O)c1ccc(Cl)cc1)Nc1ccccc1Cl	> 15	1.46
CCCC(=O)C1=C(c2cccc(OC)c2)N(C(=O)CCC)n2cnnc2S1	> 15	> 15
CCOc1cccc2sc(N(Cc3cccnc3)C(=O)c3ccccc3[N+](=O)[O-])nc12	5.31	> 15
O=C(Nc1cc(OCC(F)(F)F)cc(OCC(F)(F)C(F)F)c1)c1cccnc1	3.84	4.42
Cc1cn2c(nc3c2c(=O)n(Cc2ccc(Br)cc2)c(=O)n3C)o1	> 15	> 15
COc1ccc(C2CC3=NC(C)=C(C(=O)OCC(C)C)C(c4ccc(F)cc4)C3=C(O)C2)cc1 (configuration not stated)	2.7	3.01
COc1ccc(Nc2cc(C)nc(Nc3ccc(NS(=O)(=O)c4ccc(F)cc4)cc3)n2)cc1	1.55	> 15
